One experiment deals with TNFα. As to the kind of experiment: Cot Monocyte TNFα Cell Based Assay.
The target in a further experiment is Human Cot (Homo sapiens (Human), UniProt P41279). As to the kind of experiment: High Throughput Cot Biochemical Assay. To be noted: Cot HTRF (TR-FRET) biochemical assay. Background: TR-FRET usually uses a lanthanide donor and a delayed reading to cut background.
[1] abbreviates: Homo sapiens, Monocyte, read-out: EC50 TNF, LPS-stimulated human monocytes, TNFα.
Setting [2] is: read-out: EC50 TNF, LPS-stimulated human monocytes, TNFα.

Each structure is given as a SMILES string. pEC50, pIC50: −log10 of the molar value. Where two headings read alike, the source gives them in different places.

Chain of Human Cot (P41279 30-397): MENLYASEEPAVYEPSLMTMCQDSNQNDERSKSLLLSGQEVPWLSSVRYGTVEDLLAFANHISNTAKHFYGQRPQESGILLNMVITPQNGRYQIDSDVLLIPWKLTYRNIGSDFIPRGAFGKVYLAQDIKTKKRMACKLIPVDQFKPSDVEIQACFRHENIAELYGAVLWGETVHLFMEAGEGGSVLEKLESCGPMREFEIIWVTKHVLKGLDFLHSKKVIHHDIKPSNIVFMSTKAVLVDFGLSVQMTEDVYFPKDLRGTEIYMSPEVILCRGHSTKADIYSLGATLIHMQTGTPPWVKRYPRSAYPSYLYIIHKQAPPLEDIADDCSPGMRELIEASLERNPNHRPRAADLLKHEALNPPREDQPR
Protocol for TNFα: The cell suspension was then plated at a density of 5,000 cells/well onto black 384 well Greiner clear bottom plates. Plates were pre-spotted with test compounds and serially diluted in DMSO where 200 nL/well were delivered using the Echo 550 acoustic liquid dispenser (Labcyte®) for a final DMSO concentration of 0.5%. Plated cells were treated with compound for 1 hour at 37° C. Cells were then stimulated with 50 pg/ml of LPS (Sigma) excluding outside columns of plate used for unstimulated cell control wells. Cells were incubated for an additional 4 hours at 37° C. Cells were then spun out of the media and 5 μl of sample were taken and analyzed for total TNFα content using the TR-FRET Human TNFα detection system (CisBio). This system utilizes two labeled antibodies (cryptate and XL665) that bind to two different epitopes of the TNFα molecule and produce FRET signal proportional to the concentration of TNFα in the sample. […] Plates were covered with clear seals and incubated at room temp overnight. […] Percent of control was calculated as follows: % Control=100×(RatioSample−Ratio0% Stimulation)/(Ratio100% Stimulation−Ratio0% Stimulation) where unstimulated cells (0% stimulation) were the negative control and stimulated cells (100% stimulation) were used as the positive control.

What is called pEC50 is the EC50 on a negative log10 scale, so that one unit is a factor of ten. What is called pIC50 is −log10 of the IC50, conventionally taken in molar units. As for `N#Cc1csc([C@H](Nc2cc(Cl)c3ncc(C#N)c(Nc4ccc(F)c(Cl)c4)c3c2)c2cn(Cc3ccccn3)nn2)c1` [Example 317, (R)-8-chloro-4-((3-chloro-4-fluorophenyl)amino)-6-(((4-cyano-thiophen-2-yl)(1-(pyridin-2-ylmethyl)-1H-1,2,3-triazol-4-yl)methyl)-amino)quinoline-3-carbonitrile], the pEC50 in the experiment with TNFα (setting [1]) was 6.60. The molecule also showed a pIC50 on Human Cot (IC50 HTRF) of 7.80.

Regarding `Cc1nc(Cl)ccc1[C@H](Nc1cc(Cl)c2ncc(C#N)c(Nc3ccc(F)c(Cl)c3)c2c1)c1cn(C2CCN(C(C)(C)C)CC2)nn1` [Example 318], in the experiment on TNFα (setting [2]), the pEC50 is 6.57. On Human Cot (read-out: IC50 HTRF), the pIC50 was 8.10.

With `N#Cc1cnc2c(Cl)cc(N[C@H](c3cn(C4COC4)nn3)c3cccnc3Cl)cc2c1Nc1ccc(F)c(Cl)c1` [Example 319, (S)-8-chloro-4-((3-chloro-4-fluorophenyl)amino)-6-(((2-chloropyridin-3-yl)(1-(oxetan-3-yl)-1H-1,2,3-triazol-4-yl)methyl)amino)-quinoline-3-carbonitrile], the pEC50 in the experiment on TNFα (setting [1]) is 6.78. Also, the pIC50 at Human Cot (IC50 HTRF) was 8.30.

As to `Cc1nc(Cl)ccc1[C@H](Nc1cc(Cl)c2ncc(C#N)c(Nc3ccc(F)c(Cl)c3)c2c1)c1cn(C2COC2)nn1` [Example 321, (S)-8-chloro-6-(((6-chloro-2-methyl-pyridin-3-yl)(1-(oxetan-3-yl)-1H-1,2,3-triazol-4-yl)methyl)amino)-4-((3-chloro-4-fluorophenyl)amino)quinoline-3-carbonitrile], in the experiment with TNFα (setting [1]), the pEC50 is 6.67. Also, at Human Cot (IC50 HTRF), the pIC50 is 8.00.

On to `N#Cc1cnc2c(Cl)cc(N[C@H](c3cn(C4COC4)nn3)c3ccc(Cl)nc3Cl)cc2c1Nc1ccc(F)c(Cl)c1` [Example 322, (S)-8-chloro-4-((3-chloro-4-fluorophenyl)amino)-6-(((2,6-dichloro-pyridin-3-yl)(1-(oxetan-3-yl)-1H-1,2,3-triazol-4-yl)methyl)amino)quinoline-3-carbonitrile], for which the pEC50 with TNFα (setting [1]) is 6.43. The molecule further showed a pIC50 against Human Cot (IC50 HTRF) of 7.48.

For `CC(C)(C)N1CCC(n2cc([C@@H](Nc3cc(Cl)c4ncc(C#N)c(Nc5ccc(F)c(Cl)c5)c4c3)c3ccc(Cl)nc3Cl)nn2)CC1` [Example 325, (S)-6-(((1-(1-(tert-butyl)piperidin-4-yl)-1H-1,2,3-triazol-4-yl)(2,6-dichloropyridin-3-yl)methyl)amino)-8-chloro-4-((3-chloro-4-fluorophenyl)-amino)quinoline-3-carbonitrile], the pEC50 in the experiment with TNFα (setting [1]) was 6.19. Besides, the pIC50 against Human Cot (IC50 HTRF) is 7.70.

Turning to `Cc1nc(Cl)ccc1[C@H](Nc1cc(Cl)c2ncc(C#N)c(Nc3ccc(F)c(Cl)c3)c2c1)c1cn(CCO)nn1` [Example 328, (S)-8-chloro-6-(((6-chloro-2-methylpyridin-3-yl)(1-(2-hydroxyethyl)-1H-1,2,3-triazol-4-yl)methyl)amino)-4-((3-chloro-4-fluorophenyl)amino)-quinoline-3-carbonitrile], the pEC50 with TNFα (setting [1]) was 6.57. The molecule also gave a pIC50 at Human Cot (IC50 HTRF) of 8.40.

On to `N#Cc1cnc2c(Cl)cc(N[C@H](c3cn(CCO)nn3)c3cccnc3Cl)cc2c1Nc1ccc(F)c(Cl)c1` [Example 331, (S)-8-chloro-4-((3-chloro-4-fluorophenyl)amino)-6-(((2-chloropyridin-3-yl)(1-(2-hydroxy-ethyl)-1H-1,2,3-triazol-4-yl)methyl)amino)quinoline-3-carbonitrile], for which, in the experiment on TNFα (setting [1]), the pEC50 is 6.76. On Human Cot (IC50 HTRF), this molecule had a pIC50 of 8.52.

`N#Cc1cnc2c(Cl)cc(N[C@@H](c3cccnc3)c3cn(CCN4CCCCC4)nn3)cc2c1Nc1ccc(F)c(Cl)c1` [Example 334, (S)-8-chloro-4-((3-chloro-4-fluorophenyl)amino)-6-(((1-(2-(piperidin-1-yl)ethyl)-1H-1,2,3-triazol-4-yl)(pyridin-3-yl)methyl)-amino)quinoline-3-carbonitrile]: in the experiment on TNFα (setting [1]), the pEC50 is 7.09. Also, at Human Cot (IC50 HTRF), the pIC50 was 8.40.

For the molecule `N#Cc1cnc2c(Cl)cc(N[C@@H](c3cccnc3)c3cn(CCN4CCOCC4)nn3)cc2c1Nc1ccc(F)c(Cl)c1` [Example 335, (S)-8-chloro-4-((3-chloro-4-fluorophenyl)amino)-6-(((1-(2-morpholinoethyl)-1H-1,2,3-triazol-4-yl)(pyridin-3-yl)methyl)amino)-quinoiine-3-carbonitrile], the pEC50 in the experiment on TNFα (setting [2]) was 6.39. Further, at Human Cot (read-out: IC50 HTRF), the pIC50 is 8.00.

With `COCCOCCn1cc([C@@H](Nc2cc(Cl)c3ncc(C#N)c(Nc4ccc(F)c(Cl)c4)c3c2)c2cccnc2)nn1` [Example 340, (S)-8-chloro-4-((3-chloro-4-fluorophenyl)amino)-6-(((1-(2-(2-methoxyethoxy)ethyl)-1H-1,2,3-triazol-4-yl)(pyridin-3-yl)methyl)-amino)quinoline-3-carbonitrile], in the experiment on TNFα (setting [1]), the pEC50 is 6.48. The pIC50 on Human Cot (IC50 HTRF) is 8.10.

Turning to `N#Cc1cnc2c(Cl)cc(N[C@@H](c3cccnc3)c3cn(CCOCCO)nn3)cc2c1Nc1ccc(F)c(Cl)c1` [Example 341, (S)-8-chloro-4-((3-chloro-4-fluorophenyl)amino)-6-(((1-(2-(2-hydroxyethoxy)ethyl)-1H-1,2,3-triazol-4-yl)(pyridin-3-yl)methyl)-amino)quinoline-3-carbonitrile], the pEC50 in the experiment with TNFα (setting [1]) is 6.07. The pIC50 against Human Cot (IC50 HTRF) is 8.22.

In the case of `Cn1cncc1[C@H](Nc1cc(Cl)c2ncc(C#N)c(Nc3ccc(F)c(Cl)c3)c2c1)c1cn(C2CCN(C(C)(C)C)CC2)nn1` [Example 342, (S)-6-(((1-(1-(tert-butyl)piperidin-4-yl)-1H-1,2,3-triazol-4-yl)(1-methyl-1H-imidazol-5-yl)methyl)amino)-8-chloro-4-((3-chloro-4-fluorophenyl)-amino)quinoline-3-carbonitrile], the pEC50 in the experiment with TNFα (setting [1]) is 5.22. Also, the pIC50 at Human Cot (IC50 HTRF) is 7.42.

Regarding `CCN1CCc2c([C@H](Nc3cc(Cl)c4ncc(C#N)c(Nc5ccc(F)c(Cl)c5)c4c3)c3cn(C(C)C)nn3)csc2C1` [Example 344, (S)-8-chloro-4-((3-chloro-4-fluorophenyl)amino)-6-(((6-ethyl-4,5,6,7-tetrahydrothieno[2,3-c]pyridin-3-yl)(1-isopropyl-1H-1,2,3-triazol-4-yl)methyl)amino)quinoline-3-carbonitrile], the pEC50 in the experiment on TNFα (setting [1]) was 6.82. On Human Cot (IC50 HTRF), this molecule showed a pIC50 of 8.52.

Take `CC(C)n1cc([C@@H](Nc2cc(Cl)c3ncc(C#N)c(Nc4ccc(F)c(Cl)c4)c3c2)c2csc3c2CCN(C)C3)nn1` [Example 345, (S)-8-chloro-4-((3-chloro-4-fluorophenyl)amino)-6-(((1-isopropyl-1H-1,2,3-triazol-4-yl)(6-methyl-4,5,6,7-tetrahydrothieno[2,3-c]pyridin-3-yl)methyl)amino)quinoline-3-carbonitrile]: in the experiment on TNFα (setting [1]), the pEC50 is 7.14. On Human Cot (IC50 HTRF), this molecule showed a pIC50 of 8.52.

In the case of `CC(C)n1cc([C@@H](Nc2cc(Cl)c3ncc(C#N)c(Nc4ccc(F)c(Cl)c4)c3c2)c2csc3c2CCNC3)nn1` [Example 346, (S)-8-chloro-4-((3-chloro-4-fluorophenyl)amino)-6-(((1-isopropyl-1H-1,2,3-triazol-4-yl)(4,5,6,7-tetrahydrothieno[2,3-c]pyridin-3-yl)methyl)amino)quinoline-3-carbonitrile], the pEC50 in the experiment on TNFα (setting [1]) is 6.68. Besides, on Human Cot (IC50 HTRF), the pIC50 was 8.52.

For the molecule `CC(C)(C)N1CCC(n2cc([C@@H](Nc3cc(Cl)c4ncc(C#N)c(Nc5ccc(F)c(Cl)c5)c4c3)c3ccc(F)nc3)nn2)CC1` [Example 347, (S)-6-(((1-(1-(tert-butyl)piperidin-4-yl)-1H-1,2,3-triazol-4-yl)(6-fluoropyridin-3-yl)methyl)amino)-8-chloro-4-((3-chloro-4-fluorophenyl)amino)quinoline-3-carbonitrile], the pEC50 with TNFα (setting [1]) was 6.56. This molecule had a pIC50 against Human Cot (IC50 HTRF) of 8.40.

For `CC(C)(C)N1CCC(n2cc([C@@H](Nc3cc(Cl)c4ncc(C#N)c(Nc5ccc(F)c(Cl)c5)c4c3)c3csc4ccc(Cl)cc34)nn2)CC1` [Example 349, (S)-6-(((1-(1-(tert-butyl)piperidin-4-yl)-1H-1,2,3-triazol-4-yl)(5-chlorobenzo[b]-thiophen-3-yl)methyl)amino)-8-chloro-4-((3-chloro-4-fluorophenyl)amino)quinoline-3-carbonitrile], in the experiment on TNFα (setting [1]), the pEC50 is 6.14. For the same molecule, the pIC50 against Human Cot (IC50 HTRF) is 7.39.

For `CC(C)(C)N1CCC(n2cc([C@@H](Nc3cc(Cl)c4ncc(C#N)c(Nc5ccc(Cl)c(Cl)c5)c4c3)c3cscn3)nn2)CC1` [Example 350, (S)-6-(((1-(1-(tert-butyl)piperidin-4-yl)-1H-1,2,3-triazol-4-yl)(thiazol-4-yl)methyl)amino)-8-chloro-4-((3,4-dichlorophenyl)amino)quinoline-3-carbonitrile], in the experiment on TNFα (setting [1]), the pEC50 is 5.35. Also, on Human Cot (IC50 HTRF), the pIC50 was 7.59.

Take `CC(C)(C)N1CCC(n2cc([C@@H](Nc3cc(Cl)c4ncc(C#N)c(Nc5ccc(F)c(Cl)c5)c4c3)c3csc4ccccc34)nn2)CC1` [Example 351, (S)-6-((benzo[b]thiophen-3-yl(1-(1-(tert-butyl)piperidin-4-yl)-1H-1,2,3-triazol-4-yl)methyl)amino)-8-chloro-4-((3-chloro-4-fluorophenyl)amino)-quinoline-3-carbonitrile]: the pEC50 in the experiment on TNFα (setting [1]) is 6.13. The molecule further had a pIC50 against Human Cot (IC50 HTRF) of 8.00.

Take `CC(C)(C)N1CCC(n2cc([C@@H](Nc3cc(Cl)c4ncc(C#N)c(Nc5ccc(F)c(Cl)c5)c4c3)c3cscn3)nn2)CC1` [Example 353, (S)-6-(((1-(1-(tert-butyl)piperidin-4-yl)-1H-1,2,3-triazol-4-yl)(thiazol-4-yl)methyl)amino)-8-chloro-4-((3-chloro-4-fluorophenyl)amino)-quinoline-3-carbonitrile]: the pEC50 in the experiment on TNFα (setting [1]) was 6.74. This molecule gave a pIC50 at Human Cot (IC50 HTRF) of 8.40.

Turning to `CN(C)CCn1cc([C@@H](Nc2cc(Cl)c3ncc(C#N)c(Nc4ccc(F)c(Cl)c4)c3c2)c2cscn2)nn1` [Example 355, (S)-8-chloro-4-((3-chloro-4-fluorophenyl)amino)-6-(((1-(2-(dimethylamino)ethyl)-1H-1,2,3-triazol-4-yl)(thiazol-4-yl)methyl)-amino)quinoline-3-carbonitrile], the pEC50 in the experiment on TNFα (setting [1]) was 6.71. At Human Cot (IC50 HTRF), this molecule showed a pIC50 of 8.30.

Values taken from patent US11066414B2, “Cot modulators and methods of use thereof” (Gilead Sciences, Inc., priority 2015, dated 2021).
